According to US12622916B2, “Use of H3K9me3 modulation for enhancing cognitive function” (THE REGENTS OF THE UNIVERSITY OF CALIFORNIA, priority 2015, dated 2026):
Entries after “also recorded” stand apart in the source; their conditions may differ.

Experiments:
[1] = target: histone acetyltransferase p300 (Homo sapiens, UniProt Q09472); assay: Inhibitory activity towards histone acetyltransferase p300; assay type: biochemical
From the text: In accordance with one or more embodiments of the present invention, the role of H3K9me3 in learning and memory in an animal model of aging using a newly developed analog of the epidithiodiketopiperazine alkaloid chaetocin A called ETP69, illustrated in FIG. 1, is studied.

[2] = test system: 14 DIV hippocampal neurons; assay: PSD-95 immunoreactivity and dendritic F-actin staining in hippocampal neurons; assay type: cell-based; conditions: 20 nM, 24 hours
From the text: Neurons were stained with antibodies against PSD-95 (red) and MAP2 (green). Scale bars: 10 μm, top panel; 2 μm, bottom panel.
Note presence of numerous puncta marking presence of many spines. Top panel: Control, bottom panel: ETP treated neurons. Scale bar: 2 μm.

Arc = Arc changes after ETP69 treatment (data not shown); assay type: in vivo, mice
BDNF = assay: ELISA for BDNF protein in hippocampus; assay type: in vivo; conditions: aged mice; 10 mg/kg i.p. before or right after OLM acquisition; versus controls
Procedure: (§1) Acquisition (pre-training) or Consolidation (post-training): In another test, aimed to determine the efficacy of the compound in pre and post training paradigms, the same group of 22 aged animals were retested on the OLM task 3 weeks after the first test. To determine whether the drug impacted acquisition or consolidation mechanisms, mice were injected with the 10 mg/kg compound (i.p. n=7) or vehicle (n=8). Animals were sacrificed right after retention testing (i.e. 24 hours post injection), and hippocampi were removed, rapidly frozen on dry ice, and stored at −80° C. until processing for trimethylation levels and BDNF assay. FIG. 2 is a graphical representation of the effect of the drug at 10 mg/kg and 20 mg/kg (i.p) administered 30 minutes prior to acquisition phase in the novel place position task in mice. […] Data are mean±SEM; n=7 or 8/group.
ELISA was performed using the BDNF Emax Immunoassay System (G7610, Promega) according to the manufacturer's instructions. Two sets of samples were prepared from the hippocampus of each animal, and all reactions were performed in duplicate.

young C57Bl/6J male mice = assay: Object location memory (OLM) task in young mice; assay type: in vivo
Procedure: (§2) Object Location Memory (OLM): Training and testing procedures were performed using a standard OLM protocol. Briefly, 22 aged mice and 18 young mice were handled for about 2-3 minutes per day for 5 days, followed by habituation to the experimental apparatus (white rectangular open field measuring 30×23×21.5 cm) for 5 min per day for 5 consecutive days before training.
18 young mice were also tested in the same OLM paradigm as described above. To determine whether the drug impacted acquisition or consolidation mechanisms, the young mice were injected with the 10 mg/kg compound or vehicle (i.p, n=6/group), either just before or right after the acquisition trial, and tested 24 hours post-acquisition. FIG. 3 is a graphical representation of the results of OLM test showing the differences in exploration between mice treated with either vehicle, or 10 mg/kg of ETP69. […] Data are mean±SEM; n=7 or 8/group.

aged C57Bl/6J male mice = assay: Object location memory (OLM) task in aged mice; assay type: in vivo; conditions: for OLM retention: memory performance (exploration of novel versus familiar location): retention test 24 hours later
Procedure: as §2
Dose Response in OLM: On the test day mice were given 3 minutes of habituation (in an empty test arena) followed by i.p. injection of ETP69 (10 mg/kg (n=8) or 20 mg/kg (n=7)) or vehicle (n=7). Mice were then given a 3-min acquisition trial (with 2 similar objects placed in the arena opposite each other) 30 minutes after the i.p. injection of drug or vehicle and all animals were then returned to their home cages for a 24 hour inter-trial interval. Twenty-four hours later, a 3-minute retention test was administered, where one object was moved to a novel location and the amount of time the animals spent exploring the novel versus familiar location was recorded in order to evaluate the dose response in the OLM task. Since animals that had received 10 mg/kg performed better than other groups in the OLM task, 10 mg/kg was used for the remainder of the study. This OLM paradigm has previously shown to be subthreshold for learning.
as §1

[3] = target: DNA methyltransferase DNMT1 (Homo sapiens, UniProt P26358); assay: Inhibitory activity towards DNA methyltransferase DNMT1; assay type: biochemical
Sequence of DNA methyltransferase DNMT1 (P26358 whole entry): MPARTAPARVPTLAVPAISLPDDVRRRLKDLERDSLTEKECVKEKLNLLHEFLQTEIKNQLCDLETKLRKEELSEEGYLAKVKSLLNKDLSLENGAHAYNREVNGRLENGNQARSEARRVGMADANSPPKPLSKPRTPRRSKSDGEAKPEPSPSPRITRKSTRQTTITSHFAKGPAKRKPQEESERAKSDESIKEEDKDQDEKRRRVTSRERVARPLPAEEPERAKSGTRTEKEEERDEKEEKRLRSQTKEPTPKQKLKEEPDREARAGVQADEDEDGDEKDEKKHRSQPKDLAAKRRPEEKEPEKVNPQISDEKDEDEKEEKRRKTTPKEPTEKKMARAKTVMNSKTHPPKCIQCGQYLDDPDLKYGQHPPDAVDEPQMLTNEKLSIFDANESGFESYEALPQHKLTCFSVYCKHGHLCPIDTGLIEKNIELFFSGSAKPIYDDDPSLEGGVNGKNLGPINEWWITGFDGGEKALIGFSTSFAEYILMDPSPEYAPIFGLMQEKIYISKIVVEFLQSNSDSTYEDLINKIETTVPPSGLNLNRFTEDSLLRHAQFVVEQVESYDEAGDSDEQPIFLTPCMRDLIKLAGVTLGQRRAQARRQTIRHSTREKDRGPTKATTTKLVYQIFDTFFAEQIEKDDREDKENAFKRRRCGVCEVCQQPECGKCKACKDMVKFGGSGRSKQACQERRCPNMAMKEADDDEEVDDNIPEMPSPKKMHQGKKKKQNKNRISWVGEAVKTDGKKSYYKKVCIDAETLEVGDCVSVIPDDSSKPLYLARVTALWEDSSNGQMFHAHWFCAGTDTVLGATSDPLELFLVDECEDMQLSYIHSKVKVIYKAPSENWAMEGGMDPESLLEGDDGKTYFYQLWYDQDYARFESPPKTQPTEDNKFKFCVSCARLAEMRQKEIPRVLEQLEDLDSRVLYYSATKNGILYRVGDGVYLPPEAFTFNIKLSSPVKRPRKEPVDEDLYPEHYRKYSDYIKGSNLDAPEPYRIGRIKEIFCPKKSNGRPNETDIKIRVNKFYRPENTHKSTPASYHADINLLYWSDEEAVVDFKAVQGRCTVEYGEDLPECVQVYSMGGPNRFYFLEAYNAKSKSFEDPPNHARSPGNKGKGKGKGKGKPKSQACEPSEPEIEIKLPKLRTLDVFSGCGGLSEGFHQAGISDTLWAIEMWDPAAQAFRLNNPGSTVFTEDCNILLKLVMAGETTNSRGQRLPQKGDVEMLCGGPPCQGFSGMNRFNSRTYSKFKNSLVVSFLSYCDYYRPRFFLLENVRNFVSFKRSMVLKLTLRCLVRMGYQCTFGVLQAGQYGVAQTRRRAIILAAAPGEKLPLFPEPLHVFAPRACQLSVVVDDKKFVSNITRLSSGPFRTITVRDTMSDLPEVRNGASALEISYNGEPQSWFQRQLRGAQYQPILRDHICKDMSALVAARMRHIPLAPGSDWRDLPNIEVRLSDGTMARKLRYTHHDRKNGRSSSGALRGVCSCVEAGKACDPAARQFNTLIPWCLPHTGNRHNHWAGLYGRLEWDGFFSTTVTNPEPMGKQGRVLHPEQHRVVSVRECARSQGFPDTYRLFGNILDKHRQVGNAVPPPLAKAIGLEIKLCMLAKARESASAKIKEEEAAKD

aged mice = assay: Unsupervised learning task (USL) in aged mice; assay type: in vivo; conditions: 10 mg/kg i.p.
Procedure: Unsupervised learning task: A new group of 12 aged animals were used for the unsupervised learning task. Procedures were adapted from published work. The unsupervised learning (USL) behavioral apparatus consisted of a large open field divided by walls into 4 chambers, all accessible by small entrances in each dividing wall. The animals can also access a smaller attached enclosed dark compartment by an open entrance. After 5 days of handling, animals were injected with ETP69 (10 mg/kg, i.p.) or vehicle and placed in the video-monitored USL box for thirty minutes, and the returned to the home cage. 24 hours later the animals were placed in the USL box again and euthanized immediately after. Their brains were rapidly removed, hippocampus dissected rapidly, frozen on dry ice, and stored at −80° C. until further processing
To evaluate if H3K9me3 is implicated in measures of spatial learning and to evaluate molecular endpoints, a second series of experiments was conducted with the USL task being the behavioral endpoint. The USL task is a simple behavioral paradigm in which mice are allowed to freely explore a four-compartment environment for a specified period of time. Reduction in overall activity and exploration of the test arena over this time is considered a measure of learning and short-term memory. […]

Sequence of histone acetyltransferase p300 (Q09472 whole entry, species assumed): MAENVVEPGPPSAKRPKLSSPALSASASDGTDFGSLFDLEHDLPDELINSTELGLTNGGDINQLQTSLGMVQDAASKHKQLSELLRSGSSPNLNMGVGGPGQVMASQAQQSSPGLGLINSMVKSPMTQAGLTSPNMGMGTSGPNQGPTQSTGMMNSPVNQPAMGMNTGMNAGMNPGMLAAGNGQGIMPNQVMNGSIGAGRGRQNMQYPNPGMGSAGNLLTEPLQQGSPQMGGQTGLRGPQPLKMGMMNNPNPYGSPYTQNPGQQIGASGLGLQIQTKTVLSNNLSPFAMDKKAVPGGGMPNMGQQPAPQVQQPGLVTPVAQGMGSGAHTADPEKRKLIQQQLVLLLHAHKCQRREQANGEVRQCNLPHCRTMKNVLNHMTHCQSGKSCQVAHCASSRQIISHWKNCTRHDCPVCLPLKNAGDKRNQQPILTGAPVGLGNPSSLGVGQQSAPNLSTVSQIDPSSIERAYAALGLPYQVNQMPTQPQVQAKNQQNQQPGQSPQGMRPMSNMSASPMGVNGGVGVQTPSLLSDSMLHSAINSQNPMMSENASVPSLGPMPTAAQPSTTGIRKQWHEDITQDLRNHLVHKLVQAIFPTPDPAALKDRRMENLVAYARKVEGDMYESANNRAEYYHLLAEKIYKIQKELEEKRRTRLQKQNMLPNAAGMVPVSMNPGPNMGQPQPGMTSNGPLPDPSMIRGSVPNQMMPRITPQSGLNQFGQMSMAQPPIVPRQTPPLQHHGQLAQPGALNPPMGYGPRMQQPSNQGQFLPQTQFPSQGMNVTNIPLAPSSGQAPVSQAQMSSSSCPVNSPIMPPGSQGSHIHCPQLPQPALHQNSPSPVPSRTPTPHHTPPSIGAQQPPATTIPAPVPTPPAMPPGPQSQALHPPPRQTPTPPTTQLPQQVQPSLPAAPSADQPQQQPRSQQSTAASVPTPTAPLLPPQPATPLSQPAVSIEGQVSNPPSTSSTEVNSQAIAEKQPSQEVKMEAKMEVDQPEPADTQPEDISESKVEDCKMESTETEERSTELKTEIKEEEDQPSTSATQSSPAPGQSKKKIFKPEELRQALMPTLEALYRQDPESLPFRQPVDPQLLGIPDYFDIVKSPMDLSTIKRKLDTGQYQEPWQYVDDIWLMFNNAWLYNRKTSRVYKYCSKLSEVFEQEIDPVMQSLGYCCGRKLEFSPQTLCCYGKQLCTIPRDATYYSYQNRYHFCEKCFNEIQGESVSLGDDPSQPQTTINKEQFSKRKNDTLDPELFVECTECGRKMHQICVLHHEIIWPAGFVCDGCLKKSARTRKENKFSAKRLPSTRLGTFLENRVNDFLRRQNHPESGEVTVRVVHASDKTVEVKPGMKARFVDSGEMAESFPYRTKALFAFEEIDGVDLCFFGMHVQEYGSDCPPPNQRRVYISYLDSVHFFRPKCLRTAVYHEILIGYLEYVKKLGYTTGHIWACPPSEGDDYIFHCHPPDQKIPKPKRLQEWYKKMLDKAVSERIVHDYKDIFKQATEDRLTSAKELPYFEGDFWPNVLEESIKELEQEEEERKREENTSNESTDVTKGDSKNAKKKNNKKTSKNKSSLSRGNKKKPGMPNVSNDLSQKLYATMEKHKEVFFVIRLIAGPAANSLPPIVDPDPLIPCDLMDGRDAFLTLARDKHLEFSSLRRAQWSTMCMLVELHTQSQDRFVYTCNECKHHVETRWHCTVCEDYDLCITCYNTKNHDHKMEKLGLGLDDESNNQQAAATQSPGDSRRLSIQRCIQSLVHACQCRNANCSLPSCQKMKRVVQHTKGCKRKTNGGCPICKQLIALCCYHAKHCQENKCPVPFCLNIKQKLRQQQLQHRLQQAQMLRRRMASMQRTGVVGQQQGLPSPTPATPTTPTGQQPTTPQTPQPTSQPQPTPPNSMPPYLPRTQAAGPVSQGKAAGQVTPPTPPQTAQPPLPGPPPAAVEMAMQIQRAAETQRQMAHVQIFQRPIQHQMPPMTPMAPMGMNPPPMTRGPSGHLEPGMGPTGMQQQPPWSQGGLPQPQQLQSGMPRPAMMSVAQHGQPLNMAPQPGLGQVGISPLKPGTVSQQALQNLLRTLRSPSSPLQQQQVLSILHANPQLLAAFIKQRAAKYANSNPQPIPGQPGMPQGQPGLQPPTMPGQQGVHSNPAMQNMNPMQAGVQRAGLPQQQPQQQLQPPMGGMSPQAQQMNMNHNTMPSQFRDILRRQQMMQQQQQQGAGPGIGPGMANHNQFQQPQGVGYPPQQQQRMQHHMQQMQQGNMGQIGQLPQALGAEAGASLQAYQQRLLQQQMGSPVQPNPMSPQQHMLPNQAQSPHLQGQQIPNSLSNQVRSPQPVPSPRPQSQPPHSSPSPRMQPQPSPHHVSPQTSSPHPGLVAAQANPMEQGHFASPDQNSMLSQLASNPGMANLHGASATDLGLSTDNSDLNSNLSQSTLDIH

CN1C(=O)[C@@]23C[C@](C)(C#N)[C@H](c4ccc5c(c4)OCO5)N2C(=O)[C@]1(C)SS3 (racemic) [ETP69, Rac-(3S,6S,7S,8aS)-6-(benzo[d][1,3]dioxol-5-yl)-2,3,7-trimethyl-1,4-dioxohexahydro-6H-3,8a-epidithiopyrrolo[1,2-a]pyrazine-7-carbonitrile]
inhibitory activity towards histone acetyltransferase p300 [1]: no inhibitory activity | PSD-95 immunoreactivity [2]: increased PSD-95 immunoreactivity | dendritic F-actin staining [2]: increased dendritic F-actin staining | changes in Arc (Arc): did not observe changes in Arc | BDNF protein levels in hippocampus (BDNF): significantly elevated levels of BDNF | OLM acquisition phase: group differences (young C57Bl/6J male mice; 10 mg/kg i.p.): no significant group differences | OLM performance, pre-trial administration (young C57Bl/6J male mice; 10 mg/kg i.p. 30 minutes prior to acquisition phase): did not show any statistical differences | OLM performance, post-trial administration (young C57Bl/6J male mice; 10 mg/kg i.p. immediately after acquisition): did not show any statistical differences | OLM acquisition phase: object exploration (seconds) (aged C57Bl/6J male mice; 10 mg/kg and 20 mg/kg i.p. 30 minutes before acquisition): no difference in object exploration | OLM acquisition phase, pre/post-trial experiment: group differences (aged C57Bl/6J male mice; 10 mg/kg i.p.): no significant group differences | OLM retention: memory performance (exploration of novel versus familiar location) (aged C57Bl/6J male mice; 10 mg/kg i.p. 30 minutes before acquisition, 10 mg/kg): explored the novel object significantly (measured in seconds) more than the familiar object; also recorded: induced memory improvements | OLM performance, pre-trial administration (aged C57Bl/6J male mice; 10 mg/kg i.p. 30 minutes prior to acquisition phase, tested 24 h): improved performance in the OLM task | OLM performance, post-trial administration (aged C57Bl/6J male mice; 10 mg/kg i.p. immediately after acquisition, tested 24 h): improved performance in the OLM task | OLM acquisition phase: total exploration time (aged C57Bl/6J male mice; 20 mg/kg i.p.): decrease in total exploration time | OLM retention: memory performance (exploration of novel versus familiar location) (aged C57Bl/6J male mice; 20 mg/kg i.p. 30 minutes before acquisition, 20 mg/kg): performed similar to aged controls; also recorded: but not 20 mg/kg induced memory improvements | inhibitory activity towards DNA methyltransferase DNMT1 [3]: no inhibitory activity | USL total distance travelled over 30 minutes, Day 1 versus Day 2 (aged mice): significant decrease in total distance travelled | USL habituation/exploration (distance travelled), Day 2 versus Day 1 (aged mice; 24 hours after treatment): significant decrease in habituation/exploration
